Laboratory results published in patent US20260108483A1, “METHODS AND COMPOSITIONS FOR PREVENTING THE PROGRESSION OF DIABETIC RETINOPATHY AND RELATED CONDITIONS” (Opus Genetics, Inc., priority 2023, published 2026).
Where a name gives a salt, the structure may show the parent alone.

Test: Dynamic vapor sorption (DVS) analysis
Format: physicochemical

CCCCCCCCC/C(=C\C1=C(C)C(=O)C(OC)=C(OC)C1=O)C(=O)O [Compound 1 calcium salt]
maximum water adsorption (DVS) (at 82% RH): about 1.52%
water retained at the end of the desorption branch (DVS) (end of desorption): 0.19%
crystalline form of post-DVS sample (XRPD) versus pre-DVS sample (subsequent XRPD analysis after DVS): maintained the same crystalline form
